Tests used:
Lp-PLA2 in human plasma = molecular target: T1, Lp-PLA2 in human plasma (Homo sapiens, UniProt Q13093); assay: Lp-PLA2 Human Plasma assay, Thio-PAF assay; format: biochemical; details: pooled human plasma, 2-thio-PAF substrate; read-out: pIC50 value in the Lp-PLA2 human plasma assays (converted)
T1 construct: from tissue; host or cells: pooled human plasma
T1 sequence (Q13093 22-441): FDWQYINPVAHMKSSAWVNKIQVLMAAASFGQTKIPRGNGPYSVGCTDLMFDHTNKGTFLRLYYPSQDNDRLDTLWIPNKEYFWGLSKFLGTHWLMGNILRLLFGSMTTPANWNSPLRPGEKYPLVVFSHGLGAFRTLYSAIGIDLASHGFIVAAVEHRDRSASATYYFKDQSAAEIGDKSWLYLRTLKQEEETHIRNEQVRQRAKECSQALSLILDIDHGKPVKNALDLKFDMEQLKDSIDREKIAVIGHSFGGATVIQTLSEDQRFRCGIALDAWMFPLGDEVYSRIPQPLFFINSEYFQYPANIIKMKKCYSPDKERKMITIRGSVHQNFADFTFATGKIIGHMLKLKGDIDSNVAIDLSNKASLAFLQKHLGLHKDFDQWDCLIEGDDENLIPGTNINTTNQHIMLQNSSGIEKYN
Text: (3) Lipoprotein-associated phospholipase A2 (Lp-PLA2) Human Plasma assay-Thio-PAF assay
The human plasma assay utilizes a thioester analog of PAF (phosphatidylcholine), where hydrolysis yields to the formation of a phospholipid containing a free thiol group. The amount of thiol is quantitated continuously by reacting with CPM (7-diethylamino-3-(4′-maleimidylphenyl)-4-methylcoumarin), a maleimide which increases in fluoresence after Michael addition of thiols. This assay may detect the activity of Lp-PLA2 in human plasma, as determined by specific inhibition by Lp-PLA2 inhibitors.
The thio-PAF assay was run as a quenched 15 μL assay. Compounds source plate was prepared by making 1:3 (by volume) serial dilution of the compounds into pure DMSO on 384-well microplate. […] of compounds on compound source plate were transferred to 384 well Greiner 784076 (black) low-volume plates by ECHO liquid dispenser. 8 μL pooled human plasma, which was previously aliquoted and frozen, was added. Plates were centrifuged for 10 sec at 500 rpm. […] Plates were read at ex: 380/em: 485 using Envision microplate reader. […]

[1] = molecular target: T2, recombinant human Lp-PLA2 (Homo sapiens, UniProt Q13093); assay: Recombinant human Lp-PLA2 assay (rhLp-PLA2), PED6 assay; format: biochemical; details: PED6 substrate, 30 minutes preincubation; read-out: rhLp-PLA2 (pIC50) (converted)
T2 sequence (Q13093 22-441): T1 sequence (Q13093 22-441)
Text: (1) Recombinant human Lp-PLA2 assays (rhLp-PLA2)-PED6 assay
N-((6-(2,4-dinitrophenyl)amino)-hexanoyl)-2-(4,4-difluoro-5,7-dimethyl-4-bora-3a,4a-diaza-s-indacene-3-pentanoyl)-1-hexadecanoyl-sn-glycero-3-phosphoethanolamine, triethylammonium salt (PED6) is a commercially available fluorescently-labeled phospholipid, which is commercially available from Invitrogene and Molecular Probes. There is a quenching para-nitro phenyl (PNP) group in the sn3 position and a Bodipy fluorescein (FL) group in the sn2 position. Upon cleavage with Lp-PLA2, the Bodipy FL group is liberated and then may result in an increase in fluorescence. Inhibitors of Lp-PLA2 therefore prevent this cleavage and no fluorescent increase is observed.
The PED6 assay was run as an unquenched 10 μL assay. The source plate containing the compounds to be tested was prepared by making 1:3 (by volume) serial dilution of the compounds within DMSO on 384-well microplate. Then, 0.01 μL of the compounds on compound source plate were transferred into 384 well Greiner 784076 (black) plates using ECHO liquid dispenser. […] The plates were read for fluorescence intensity at ex: 480/em: 540 using ViewLux microplate imager for Envision spectrofluroimeters. pIC50 data, curve and QC analysis was conducted by using XL fit module in Excel. […]

[2] = test system: proinflammatory (M1) and anti-inflammatory (M2) markers in macrophages; assay: Ex vivo analysis of M1 and M2 markers in macrophages of EAE rats by realtime PCR; set-up: species or system rat; details: splenic macrophages at day 13 post MBP-immunization and CNS infiltrating macrophages
Experimental: Ex vivo analysis of proinflammatory (M1) and anti-inflammatory (M2) markers in control and compound treated EAE rats. Splenic macrophages were harvested at day 13 post MBP-immunization and assayed for expression of a variety of markers by realtime PCR. CNS infiltrating cells were harvested and macrophages were analyzed for expression of M1 and M2 markers by realtime PCR.

[3] = test system: experimental autoimmune encephalomyelitis (EAE) rats; assay: Rat experimental autoimmune encephalomyelitis (EAE) model, preventive treatment; format: in vivo; details: rats immunized with MBP
Experimental: A further study was carried out to study the impact of Lp-PLA2 inhibitors on modulating M1/M2 imbalance. In this study, rats were induced to develop experimental autoimmune encephalomyelitis (EAE) by immunization with myelin basic protein (MBP) antigen and treated with a known Lp-PLA2 inhibitor: 5-(9-Methoxy-4-oxo-6,7-dihydro-4H-pyrimido[6,1-a]isoquinolin-2-yl)oxy)-2-(3-(trifluoromethyl)phenoxy)benzonitrile (See PCT application no. PCT/CN2011/001597). In this preventive treatment model, the compound was administered at day 0 (day of immunization) and continued to administer until day 22. The study lasted for 25 days. Rats were subsequently monitored for symptoms of EAE. Rats were immunized with MBP to develop EAE and symptoms were monitored daily. Plasma Lp-PLA2 activity, OxLDL, and LysoPC concentration were determined at different time points through the course of EAE.

[4] = compound administered day 0 until day 22, plasma

Row | IC50 (Lp-PLA2 in human plasma) | IC50 [1] | Structure (SMILES) | M1 markers expression [2] | M2 markers expression [2] | clinical disease (EAE) ([3]; compound administered day 0 until day 22) | Lp-PLA2 activity in rat EAE plasma [3, 4] | LysoPC levels in rat EAE plasma [3, 4]
1 | 20 nM | 0.316 nM | O=c1nc(OCc2cc(F)c(Oc3ccnc(C(F)(F)F)c3)c(F)c2)cc2n1C[C@@H]1CCCN21 [Example 2, (S)-3-((3,5-difluoro-4-((2-(trifluoromethyl)pyridin-4-yl)oxy)benzyl)oxy)-7,8,8a, 9-tetra hydropyrrolo[1′,2′:3,4]imidazo[1,2-c]pyrimidin-1(6H)-one] |  |  |  |  | 
2 |  |  | COc1ccc2c(c1)CCn1c-2cc(Oc2ccc(Oc3cccc(C(F)(F)F)c3)c(C#N)c2)nc1=O [5-(9-Methoxy-4-oxo-6,7-dihydro-4H-pyrimido[6,1-a]isoquinolin-2-yl)oxy)-2-(3-(trifluoromethyl)phenoxy)benzonitrile] | decrease in M1 markers | increase in M2 markers | reduction in clinical disease | decreased Lp-PLA2 activity | decreased
3 | 7.94 nM | 0.158 nM | O=c1nc(OCc2cc(F)c(Oc3ccnc(C(F)(F)F)c3)c(F)c2)cc2n1C[C@H]1CCCN21 [Example 1, (R)-3-((3,5-difluoro-4-((2-(trifluoromethyl)pyridin-4-yl)oxy)benzyl)oxy)-7,8,8a, 9-tetra hydropyrrolo[1′,2′;3,4]imidazo[1,2-c]pyrimidin-1(6H)-one] |  |  |  |  | 

— patent publication US9783546B2, “Compounds” (GlaxoSmithKline Intellectual Property Development Limited, priority 2014, dated 2017)
